Data set [1] has as its system THP-1. Nature of the data set: Cytotoxicity against human THP1 cells assessed as effect on cell viability up to 400 uM measured after 6 to 48 hrs by MTT assay. It is filed as cell-based. (In general: Tetrazolium assays rely on reduction of a dye to a coloured formazan, in cell work by metabolically active cells.)
Data set [2] relates to THP-1. Nature of the data set: Neuroprotective activity against H2O2-induced cell death in human THP1 cells assessed as cell survival at 10 uM preincubated for 2 hrs followed by H2O2 addition and measured after 24 hrs by MTT assay (reference value: 43%). The format is functional. Conditions: read-out: Survival.
Data set [3] in a line: Half life in human plasma. It is filed as ADME, cell-free.
The nature of data set [4]: Solubility of the compound in water. The settings on record: buffer. It is filed as physicochemical.
For data set [5], the system named is THP-1. Nature of the data set: Antiinflammatory activity in PMA-differentiated human THP1 cells assessed as reduction in IL-18 expression at 10 uM preincubated for 4 hrs followed by PMA addition and measured after 20 hrs by Trizol reagent based RT-PCR analysis. It is filed as functional, cell-based.
Data set [6] relates to THP-1. Nature of the data set: Antiinflammatory activity in PMA-differentiated human THP1 cells assessed as reduction in INFgamma/LPS-induced IL-8 expression at 10 uM preincubated for 2 hrs followed by INFgamma/LPS addition and measured after 6 hrs by Trizol reagent based RT-PCR analysis. The format is functional, cell-based.
The subject of data set [7] is THP-1. Nature of the data set: Immunostimulatory activity in PMA-differentiated human THP1 cells assessed as increase in IL-18 expression at 10 uM preincubated for 4 hrs followed by PMA addition and measured after 20 hrs by Trizol reagent based RT-PCR analysis. It is filed as functional, cell-based.
In data set [8] the test system is THP-1. Nature of the data set: Antiinflammatory activity in human THP1 cells assessed as reduction in Abeta (25 to 35 residues)-induced MCP1 expression at 10 uM preincubated for 2 hrs followed by Abeta (25 to 35 residues) addition and measured after 24 hrs by Trizol reagent based RT-PCR analysis. The format is functional, cell-based.
For data set [9], the system named is THP-1. Nature of the data set: Antiinflammatory activity in PMA-differentiated human THP1 cells assessed as reduction in IL4-induced IL-10 expression at 10 uM preincubated for 2 hrs followed by IL4 addition and measured after 6 hrs by Trizol reagent based RT-PCR analysis. The format is functional, cell-based.
Data set [10] relates to THP-1. Nature of the data set: Antiinflammatory activity in PMA-differentiated human THP1 cells assessed as reduction in TNFalpha expression at 10 uM preincubated for 4 hrs followed by PMA addition and measured after 20 hrs by Trizol reagent based RT-PCR analysis. The format is functional, cell-based.
Data set [11] concerns THP-1. Nature of the data set: Antiinflammatory activity in PMA-differentiated human THP1 cells assessed as reduction in IL4-induced CCL22 expression at 10 uM preincubated for 2 hrs followed by IL4 addition and measured after 6 hrs by Trizol reagent based RT-PCR analysis. The format is functional, cell-based.
Data set [12] deals with THP-1. Nature of the data set: Immunostimulatory activity in PMA-differentiated human THP1 cells assessed as increase in IL-1beta expression at 10 uM preincubated for 4 hrs followed by PMA addition and measured after 20 hrs by Trizol reagent based RT-PCR analysis. It is filed as functional, cell-based.
Data set [13] relates to THP-1. Nature of the data set: Antiinflammatory activity in PMA-differentiated human THP1 cells assessed as reduction in IL4-induced CCL18 expression at 10 uM preincubated for 2 hrs followed by IL4 addition and measured after 6 hrs by Trizol reagent based RT-PCR analysis. It is filed as functional, cell-based.
In data set [14] the test system is THP-1. Description: Immunostimulatory activity in PMA-differentiated human THP1 cells assessed as increase in TNFalpha expression at 10 uM preincubated for 4 hrs followed by PMA addition and measured after 20 hrs by Trizol reagent based RT-PCR analysis. It is filed as functional, cell-based.
The test system of data set [15] is THP-1. Nature of the data set: Antiinflammatory activity in human THP1 cells assessed as reduction in LPS-induced IL-1beta expression at 10 uM preincubated for 2 hrs followed by LPS addition and measured after 24 hrs by Trizol reagent based RT-PCR analysis. It is filed as functional, cell-based.
The test system of data set [16] is THP-1. Nature of the data set: Antiinflammatory activity in human THP1 cells assessed as reduction in Abeta (25 to 35 residues)-induced IL18 expression at 10 uM preincubated for 2 hrs followed by Abeta (25 to 35 residues) addition and measured after 24 hrs by Trizol reagent based RT-PCR analysis. It is filed as functional, cell-based.
Data set [17] has as its system THP-1. Nature of the data set: Immunostimulatory activity in PMA-differentiated human THP1 cells assessed as increase in MCP1 expression at 10 uM preincubated for 4 hrs followed by PMA addition and measured after 20 hrs by Trizol reagent based RT-PCR analysis. It is filed as functional, cell-based.
In data set [18] the test system is THP-1. Nature of the data set: Antiinflammatory activity in human THP1 cells assessed as reduction in Abeta (25 to 35 residues)-induced TNFalpha expression at 10 uM preincubated for 2 hrs followed by Abeta (25 to 35 residues) addition and measured after 24 hrs by Trizol reagent based RT-PCR analysis. It is filed as functional, cell-based.
In data set [19] the test system is THP-1. Description: Antiinflammatory activity in PMA-differentiated human THP1 cells assessed as reduction in INFgamma/LPS-induced IL-1beta expression at 10 uM preincubated for 2 hrs followed by INFgamma/LPS addition and measured after 6 hrs by Trizol reagent based RT-PCR analysis. The format is functional, cell-based.
Data set [20] relates to THP-1. Description: Antiinflammatory activity in human THP1 cells assessed as reduction in LPS-induced IL18 expression at 10 uM preincubated for 2 hrs followed by LPS addition and measured after 24 hrs by Trizol reagent based RT-PCR analysis. The format is functional, cell-based.
Data set [21] deals with THP-1. Nature of the data set: Antiinflammatory activity in PMA-differentiated human THP1 cells assessed as reduction in MCP1 expression at 10 uM preincubated for 4 hrs followed by PMA addition and measured after 20 hrs by Trizol reagent based RT-PCR analysis. It is filed as functional, cell-based.
Data set [22] deals with THP-1. Description: Antiinflammatory activity in PMA-differentiated human THP1 cells assessed as reduction in IL-1beta expression at 10 uM preincubated for 4 hrs followed by PMA addition and measured after 20 hrs by Trizol reagent based RT-PCR analysis. The format is functional, cell-based.
For data set [23], the system named is THP-1. Nature of the data set: Immunostimulatory activity in PMA-differentiated human THP1 cells assessed as increase in LPS-induced IL-4 expression at 10 uM preincubated for 2 hrs followed by LPS addition and measured after 24 hrs by Trizol reagent based RT-PCR analysis. The format is functional, cell-based.
For data set [24], the system named is THP-1. Nature of the data set: Antiinflammatory activity in PMA-differentiated human THP1 cells assessed as reduction in LPS-induced IL-1beta expression at 10 uM preincubated for 2 hrs followed by LPS addition and measured after 24 hrs by Trizol reagent based RT-PCR analysis. It is filed as functional, cell-based.
The test system of data set [25] is THP-1. Description: Immunostimulatory activity in PMA-differentiated human THP1 cells assessed as increase in LPS-induced IL-10 expression at 10 uM preincubated for 2 hrs followed by LPS addition and measured after 24 hrs by Trizol reagent based RT-PCR analysis. It is filed as functional, cell-based.
Data set [26] has as its system THP-1. Description: Antiinflammatory activity in human THP1 cells assessed as reduction in LPS-induced TNFalpha expression at 10 uM preincubated for 2 hrs followed by LPS addition and measured after 24 hrs by Trizol reagent based RT-PCR analysis. It is filed as functional, cell-based.
Data set [27] deals with THP-1. Description: Antiinflammatory activity in human THP1 cells assessed as reduction in Abeta (25 to 35 residues)-induced IL-1beta expression at 10 uM preincubated for 2 hrs followed by Abeta (25 to 35 residues) addition and measured after 24 hrs by Trizol reagent based RT-PCR analysis. It is filed as functional, cell-based.
Data set [28] deals with THP-1. Nature of the data set: Antiinflammatory activity in PMA-differentiated human THP1 cells assessed as reduction in LPS-induced IL18 expression at 10 uM preincubated for 2 hrs followed by LPS addition and measured after 24 hrs by Trizol reagent based RT-PCR analysis. It is filed as functional, cell-based.
The test system of data set [29] is THP-1. Description: Neuroprotective activity against Abeta (25 to 35 residues)-induced cell death in human THP1 cells assessed as cell survival at 10 uM preincubated for 2 hrs followed by Abeta (25 to 35 residues) addition and measured after 24 hrs by MTT assay (reference value: 40%). It is filed as functional. The settings on record: read-out: Survival.

Here are results for four molecules from ChEMBL document CHEMBL4371039, “Synthesis and biological evaluation of novel analogues of Gly-l-Pro-l-Glu (GPE) as neuroprotective agents” (Bioorg Med Chem Lett, 2019).

Structures are written as SMILES. Calls of active or inactive are those of the source. The calls are words filed in the database; no cut-off is given here.

With `NCCN1CCC[C@H]1C(=O)N[C@@H](CCC(=O)O)C(=O)O.O=C(O)C(F)(F)F.O=C(O)C(F)(F)F`, the Activity result in the data set on THP-1 [1] was “Non-Toxic”. Also, the viability at 10 µM with THP-1 [2] was 90%. Moreover, the half-life (as a rule, how long it takes for the measured level to halve) in [3] is 708 min. Besides, in data set [4], the solubility entry is given as “Soluble”.
Consider `NCCN1CCC[C@H]1C(=O)N[C@@H](CCC(=O)O)C(=O)O`, for which the result with THP-1 [5], in the data set with THP-1 [6], in the data set on THP-1 [7], in the data set with THP-1 [8], with THP-1 [10] and in the data set with THP-1 [12] was Active. For the same molecule, the result in the data set on THP-1 [14], with THP-1 [15], in the data set with THP-1 [17], with THP-1 [18], with THP-1 [19] and with THP-1 [21] was Active. The result in the data set with THP-1 [22] was Active. The outcome in the data set on THP-1 [9], in the data set with THP-1 [11], in the data set on THP-1 [13], with THP-1 [16] and in the data set on THP-1 [20] was inactive.
`NCC(=O)N1CCC[C@H]1C(=O)N[C@@H](CCC(=O)O)C(=O)O.O=C(O)C(F)(F)F.O=C(O)C(F)(F)F`: the result in the data set with THP-1 [5], in the data set on THP-1 [10], with THP-1 [23], with THP-1 [24], in the data set on THP-1 [15] and in the data set with THP-1 [25] was Active. The result with THP-1 [26], in the data set on THP-1 [27], with THP-1 [28], in the data set with THP-1 [21] and in the data set with THP-1 [22] was Active. Further, the Activity entry in the data set on THP-1 [1] is “Non-Toxic”. For the same molecule, in the data set with THP-1 [2], the viability at 10 µM was found to be 100%. Also, the outcome in the data set on THP-1 [16], in the data set with THP-1 [18] and with THP-1 [20] was inactive. Moreover, the half-life in data set [3] is 270 min. Further, the solubility result in [4] is listed as “Soluble”.
With `NCCN1CCC[C@H]1C(=O)N[C@@H](CCC(=O)O)C(=O)O.O=C(O)C(F)(F)F`, the Activity entry with THP-1 [1] is on record as “Non-Toxic”. Besides, the viability at 10 µM in the data set on THP-1 [29] is 76%. This molecule also showed a half-life in data set [3] of 396 min. Moreover, in data set [4], the solubility entry is on record as “Soluble”.
